{"source": "patent US20220195389A1", "about": "“METHODS OF IMPROVING THE LONGEVITY OF IMMUNE CELLS” (University of Houston System, priority 2019, published 2022)", "system": "T cells", "experiment": "T-cell viability after incubation with compound C", "format": "cell-based, human", "conditions": "10 μM dorsomorphin, 6-24 hours", "procedure": "T cells were incubated with 10 μM dorsomorphin (Sigma Aldrich) for a period of 6-24 hours. The T cells were subsequently used for either motility assays or functional profiling using TIMING assays."}
{"smiles": "c1cc(-c2cnn3cc(-c4ccc(OCCN5CCCCC5)cc4)cnc23)ccn1", "note": "[CC, dorsomorphin]", "values": [{"measurement": "impact on T-cell viability", "result": "did not have an impact"}]}
